In patent publication US10286033B2, “Methods and compositions comprising desmopressin in combination with an alpha-adrenergic receptor antagonist” (Serenity Pharmaceuticals, LLC, priority 2014, dated 2019):
Marks after values point to notes of the source that are not given here.

Key:
[1] = Clinical study of desmopressin nasal spray on the occurrence of nocturnal voiding (Responder / Non-Responder); type: in vivo, human
Experimental: A clinical study was performed to evaluate the impact of administering desmopressin in combination with an alpha-adrenergic receptor antagonist alone or together with a 5-alpha reductase inhibitor to reduce the occurrence of nocturnal voiding by a patient. Experimental procedures and results are described below. […] Patients received as a nasal spray either (i) a 1.5 μg dosage of desmopressin or (ii) placebo. The desmopressin nasal spray (or placebo) was administered daily just prior to bedtime for a duration of twelve weeks. In addition, patients previously diagnosed as suffering from benign prostatic hyperplasia (BPH) and receiving an alpha-adrenergic receptor antagonist alone or together a 5-alpha reductase inhibitor for treatment of BPH continued to receive the alpha-adrenergic receptor antagonist alone or together the 5-alpha reductase inhibitor at the same dosage and frequency used prior to enrollment in this study. All patients in this study who received an alpha-adrenergic receptor antagonist alone or together a 5-alpha reductase inhibitor for treatment of their BPH had been receiving the alpha-adrenergic receptor antagonist alone or together the 5-alpha reductase inhibitor for at least 2 months before enrollment in this study and experienced on average at least two nocturnal voids per night before enrollment in this study. The desmopressin nasal spray was prepared by combining aliquots of an Emulsion Stock Solution and a Buffer Solution as described below. To produce an emulsion stock solution, the following ingredients in parts by weight are added to a vessel equipped with a stirring bar, and mixed for 15 minutes at 60-65° C.: (i) 180 parts sorbitan monolaurate (Span-20) aqueous solution (12 mg/mL); (ii) 30 parts Polysorbate 20 (Tween-20) aqueous solution (2 mg/mL); (iii) 400 parts cottonseed oil aqueous emulsion (26.6 mg/mL); (iv) 600 parts cyclopentadecanolide (CPE-215) aqueous emulsion (40 mg/mL); and (v) water to produce 1,500 grams total batch size. After mixing, the preparation is homogenized using a high speed mixture at 6500 RPM+ for 20-25 minutes to produce a fine emulsion. This solution is autoclaved to assure sterility. To produce a citric acid buffer stock solution, the following ingredients in parts by weight are added to a vessel equipped with a stirring bar, and mixed for 5 minutes at 60-65° C.: (i) 6200 parts water; (ii) 16 parts anhydrous citric acid aqueous solution (1.85 mg/mL); (iii) 76 parts sodium citrate, dihydrate aqueous solution (8.9 mg/mL); (iv) 104 parts Polysorbate 20 (Tween-20) aqueous solution (12 mg/mL); and (v) water to produce 8,500 grams total batch size. To produce a desmopressin stock solution, 0.111 part desmopressin acetate trihydrate is added to sufficient buffer stock solution to produce 100.0 mL of solution, and stirred until all the desmopressin is dissolved to produce a stock solution having a concentration of 100 μg desmopressin/mL. From this stock solution a 30 μg/mL solution was prepared by dilution. To produce the desmopressin nasal spray, aliquots of the 30 μg/mL solution were filtered to eliminate any bacterial contamination and diluted with an equal volume of emulsion stock solution to produce aseptic, preservative free dose forms comprising 15 μg/mL desmopressin, pH 5.5, containing 2% cyclopentadecanolide. These were bottled in sterile pump spray bottles fitted with a Pfeiffer APF pump sprayers that deliver 100 μL per metered spray (i.e., 1.5 μg desmopressin (i.e., 1500 ng desmopressin) per spray). The liquid contains no detectable microorganisms. Patients recorded the occurrence of nocturnal voids during the study period. Patients were designated to be a “Responder” if after receiving treatment there was a reduction in the average number of nocturnal voids during the treatment period.

[2] = human, in vivo; cited from earlier work
[3] = BPH patients also receiving alpha-adrenergic receptor antagonist and 5-alpha reductase inhibitor, 1.5 μg nasal spray, 12 weeks, n = 21
[4] = BPH patients on alpha-adrenergic receptor antagonist alone or together with 5-alpha reductase inhibitor, n = 21
[5] = BPH patients, no alpha-adrenergic receptor antagonist or 5-alpha reductase inhibitor, n = 42
[6] = male patients without BPH, desmopressin only, n = 34

In the case of NC(=O)CC[C@@H]1NC(=O)[C@H](Cc2ccccc2)NC(=O)[C@H](Cc2ccc(O)cc2)NC(=O)CCSSC[C@@H](C(=O)N2CCC[C@H]2C(=O)N[C@H](CCCN=C(N)N)C(=O)NCC(N)=O)NC(=O)[C@H](CC(N)=O)NC1=O [Desmopressin, 1-desamino-8-D-arginine vasopressin], the “Non-Responder Patients: Number of Patients that Received Desmopressin” value (shortened to “Non-Responder Patients: Number”) ([1]; BPH patients also receiving alpha-adrenergic receptor antagonist (one patient also on an anticholinergic agent), 1.5 μg nasal spray, 12 weeks, n = 21) is reported as 7**, the “Non-Responder Patients: Number” value [1, 3] is reported as 2 and the “Responder Patients: Number of Patients that Received Desmopressin” value [1, 3] is reported as 5. The “Responder Patients: Number of Patients that Received Desmopressin” value ([1]; BPH patients also receiving alpha-adrenergic receptor antagonist, 1.5 μg nasal spray daily before bedtime, 12 weeks, n = 21 desmopressin group) was 7, the “Difference in Responder Response Rate Between Desmopressin-treated Patients & Those Receiving Placebo” value (from here on “Difference”) ([1]; BPH patients on alpha-adrenergic receptor antagonist alone or together with 5-alpha reductase inhibitor) was 31% and the “Difference” value ([1]; BPH patients on alpha-adrenergic receptor antagonist alone or together with 5-alpha reductase inhibitor, listed as desmopressin) was 31%. The “Non-Responder Patients: Total Number of Patients that Received Desmopressin” value [1, 4] was 9, the “Percent Total Non-Responder Patients receiving desmopressin” value [1, 4] was 43% and the “Percent Total Responder Patients (absolute response rate) receiving desmopressin” value (“Percent Total Responder Patients” for short) [1, 4] was 57%. For the same compound, the “Responder Patients: Total Number of Patients that Received Desmopressin” value [1, 4] was 12, the “Percent Total Responder Patients” value ([1]; BPH patients on alpha-adrenergic receptor antagonist alone or together with 5-alpha reductase inhibitor, n = 21, listed as desmopressin) was 57% and the “Difference” value ([1]; BPH patients, no alpha-adrenergic receptor antagonist or 5-alpha reductase inhibitor) was 14%. For the same compound, the “Difference” value ([1]; BPH patients, no alpha-adrenergic receptor antagonist or 5-alpha reductase inhibitor, listed as desmopressin) was 14%, the “Non-Responder Patients: Number” value [1, 5] was 24 and the “Percent Total Non-Responder Patients receiving desmopressin” value [1, 5] was 57%. For the same compound, the “Percent Total Responder Patients” value [1, 5] was 43%, the “Responder Patients: Number of Patients that Received Desmopressin” value [1, 5] was 18 and the “Percent Total Responder Patients” value ([1]; BPH patients, no alpha-adrenergic receptor antagonist or 5-alpha reductase inhibitor, n = 42, listed as desmopressin) was 43%. For the same compound, the “Reduction in occurrence of nocturnal voiding, combination compared with single treatments (in words)” value ([1]; desmopressin with alpha-adrenergic receptor antagonist alone or together with 5-alpha reductase inhibitor, versus desmopressin alone or the antagonist(s) without desmopressin) was “greater percentage of patients experiencing a reduction in the occurrence of nocturnal voiding”, the “Difference” value ([1]; male patients without BPH, desmopressin only) was 18% and the “Difference” value ([1]; male patients without BPH, desmopressin only, listed as desmopressin) was 18%. For the same compound, the “Non-Responder Patients: Number” value [1, 6] was 16, the “Percent Total Non-Responder Patients receiving desmopressin” value [1, 6] was 47% and the “Percent Total Responder Patients” value [1, 6] was 53%. The “Responder Patients: Number of Patients that Received Desmopressin” value [1, 6] was 18, the “Percent Total Responder Patients” value ([1]; male patients without BPH, desmopressin only, n = 34, listed as desmopressin) was 53% and the “half-life (known clearance rate)” value [2] was 1.5 to 2.0 h.
